Assay results as given in patent US20240174727A1, “LONG-ACTING NATRIURETIC PEPTIDES AND USES THEREOF” (Eli Lilly and Company, priority 2022, published 2024).
Numbered stars: 1 amine (or outer) side, 2 acyl side, 3 side chain; on linkers, the order of the positions; unused ones are H or OH. Bridge positions count the residues as written; N and C are the ends. Square brackets hold non-standard residues; d marks the D form. * marks the point of attachment. PEG24 = NCCOCCOCCOCCOCCOCCOCCOCCOCCOCCOCCOCCOCCOCCOCCOCCOCCOCCOCCOCCOCCOCCOCCOCCOCCC(=O)O; C20 diacid = O=C(O)CCCCCCCCCCCCCCCCCCC(=O)*; γGlu = O=C(O)[C@H](CCC(=O)[*:2])N[*:1]; 4Pal = N[C@@H](Cc1ccncc1)C(=O)O; Dap = NC[C@H](N)C(=O)O; CH2 = C([*:1])[*:2]

Key:
[1] = Pharmacokinetics in male Sprague Dawley rats; type: in vivo; conditions: rat, sc, mean, single subcutaneous administration of 200 nMol/kg, plasma; for half-life: read-out: t½ (converted)
Protocol: The pharmacokinetics of the exemplary analogs are evaluated following a single subcutaneous administration of […] to male Sprague Dawley rats. Blood samples are collected over 120 hours, and resulting individual plasma concentrations are used to calculate pharmacokinetic parameters. Peptide plasma (K3 EDTA) concentrations are determined using a qualified LC/MS method that measured the intact mass of the ANP polypeptide. Each peptide and an analog as an internal standard are extracted from 100% specie specified plasma using methanol with 0.1% formic acid. A Thermo Q-Exactive, High Resolution Instrument, and a Thermo Easy Spray PepMap are combined for LC/MS detection.

[2] = system: plasma cGMP; test: In vivo monkey studies, plasma cGMP ELISA; design: species or system male cynomolgus monkeys; conditions: for Net cGMP (nM) Change from Baseline 0.083 h: 0.083 h postdose; for Net cGMP (nM) Change from Baseline 0.083 h / Net cGMP (nM) Change from Baseline 0.25 h / Net cGMP (nM) Change from Baseline 0.5 h / Net cGMP (nM) Change from Baseline 1 h / Net cGMP (nM) Change from Baseline 2 h / Net cGMP (nM) Change from Baseline 4 h / Net cGMP (nM) Change from Baseline 8 h / Net cGMP (nM) Change from Baseline 12 h / Net cGMP (nM) Change from Baseline 24 h / Net cGMP (nM) Change from Baseline 36 h / Net cGMP (nM) Change from Baseline 48 h / Net cGMP (nM) Change from Baseline 72 h / Net cGMP (nM) Change from Baseline 96 h / Net cGMP (nM) Change from Baseline 120 h / Net cGMP (nM) Change from Baseline 144 h / Net cGMP (nM) Change from Baseline 168 h: monkey plasma; for Net cGMP (nM) Change from Baseline 0.25 h: 0.25 h postdose; for Net cGMP (nM) Change from Baseline 0.5 h: 0.5 h postdose; for Net cGMP (nM) Change from Baseline 1 h: 1 h postdose; for Net cGMP (nM) Change from Baseline 2 h: 2 h postdose; for Net cGMP (nM) Change from Baseline 4 h: 4 h postdose; for Net cGMP (nM) Change from Baseline 8 h: 8 h postdose; for Net cGMP (nM) Change from Baseline 12 h: 12 h postdose; for Net cGMP (nM) Change from Baseline 24 h: 24 h postdose; for Net cGMP (nM) Change from Baseline 36 h: 36 h postdose; for Net cGMP (nM) Change from Baseline 48 h: 48 h postdose; for Net cGMP (nM) Change from Baseline 72 h: 72 h postdose; for Net cGMP (nM) Change from Baseline 96 h: 96 h postdose; for Net cGMP (nM) Change from Baseline 120 h: 120 h postdose; for Net cGMP (nM) Change from Baseline 144 h: 144 h postdose; for Net cGMP (nM) Change from Baseline 168 h: 168 h postdose; for net cGMP levels (result in words): monkeys, single SC dose, plasma
Protocol: In vivo monkey studies were conducted as described in detail below. Young adult-to-adult male cynomolgus monkeys were given a single dose subcutaneously (SC). Blood was collected predose and at various pre-determined timepoints throughout the study period. Aliquot of cynomolgus monkey plasma was received for cyclic cGMP (cGMP) measurement and stored at −80° C. prior to use.
Control plasma was made for determining the recovery rate of spike-in cGMP using Enzo cGMP complete ELISA kit (Enzo Life Sciences, Inc, Farmingdale, NY, cat no. ADI-901-164). Briefly, blood from male Sprague Dawley rats (Inotiv, Indianapolis, IN), about 7 months old, was collected in a BD Vacutainer EDTA tube (Becton Dickinson, Franklin Lakes, NJ, cat no. BD-367856) with volume of approximate 4 mL through retro orbital bleeding. Plasma was prepared by spinning the tube in an Eppendorf Refrigerated Centrifuge 5810R (Brinkman Instruments, Inc, Westbury, NY) at 3500 rpm (3000×g) for 10 min at 4° C. Plasma was collected as Positive Control plasma. Cyclic GMP (cGMP standard from Enzo cGMP complete ELISA kit) was added to the positive control plasma at a final concentration of additional 40 nM. Positive Control and Spiked-in Control plasma were aliquoted and stored at −80° C.
The cGMP content was measured using the Enzo cGMP complete ELISA kit following the manufacturer's directions with modifications as described below. The cGMP standards provided in the kit were diluted 1:3 ranging from 50 nM to 0.023 nM in 1× assay buffer that was diluted in water from 2× assay buffer provided in the kit. The cGMP standards ([…]) were transferred to a 96-well polypropylene plate (Thermo Scientific, cat no. 442587).
Plasma samples were thawed from −80° C. and diluted 1:20 in 1× assay buffer in the above plate with a final volume of 150 μL. Assay buffer was added (150 μL) for both a non-specific binding control (in the absence of cGMP antibody) and a maximum binding control (in the absence of competing cGMP) in duplicate wells. Positive Control and Spiked-in Control plasma were diluted 1:20 in 1× assay buffer with a final volume of 150 μL in duplicate wells of the above plate. All diluted plasma was mixed by pipetting up and down several times.
Acetylation reagent mix was prepared by adding 1-part of acetic anhydride into 2-parts of triethylamine provided in the kit and mixing well using Vortex (Scientific Industries, Inc, Bohemia, NY). All controls, standards, and plasma samples were acetylated by adding 15 μL of acetylation reagent mix into the plate, one column at a time, and shaking for 1 min on a Titer Plate Shaker (Lab-Line Instrument, Inc., Melrose Park, IL) at room temperature. The plate was shaken for an additional 1 min following the acetylation of the last column to ensure the reaction was completed.
Acetylated controls, standard and plasma samples were transferred (100 μL) to an ELISA plate (n=1). Then 50 μL of cGMP conjugate were added to each well followed by the addition of 50 μL cGMP antibody to each well except for two non-specific binding wells, in which 50 μL of 1× assay buffer were added. The plate was then sealed and shaken for 2 h at room temperature on the plate shaker. Following this incubation, the plate was washed five times using 200 μL of 1× wash buffer diluted in water from 5× wash buffer provided in the kit. Then, 200 μL of para-Nitrophenylphosphate (pNpp) were added to each well. The plate was sealed with a new plate sealer and shaken in dark for 1 h at room temperature on the plate shaker. Finally, 50 μL of stop solution were added to each well to stop the enzyme reaction. The plate was then read at 405 nm using SpectraMax Plus (Molecular Devices, San Jose, CA).
The mean absorbance at 405 nm (O.D. 405 nm) for the non-specific binding controls was subtracted from the O.D. 405 nm of all samples. The subtracted O.D. 405 nm of all samples were then normalized with the mean subtracted O.D. 405 nm of the maximum binding controls as B/B0%. […]

Compound	CL/F [1]	half-life [1]	Net cGMP (nM) Change from Baseline 0.083 h ([2]; dose 100 nmol/kg)	Net cGMP (nM) Change from Baseline 0.25 h ([2]; dose 100 nmol/kg)	Net cGMP (nM) Change from Baseline 0.5 h ([2]; dose 100 nmol/kg)	Net cGMP (nM) Change from Baseline 1 h ([2]; dose 100 nmol/kg)	Net cGMP (nM) Change from Baseline 2 h ([2]; dose 100 nmol/kg)	Net cGMP (nM) Change from Baseline 4 h ([2]; dose 100 nmol/kg)	Net cGMP (nM) Change from Baseline 8 h ([2]; dose 100 nmol/kg)	Net cGMP (nM) Change from Baseline 12 h ([2]; dose 100 nmol/kg)	Net cGMP (nM) Change from Baseline 24 h ([2]; dose 100 nmol/kg)	Net cGMP (nM) Change from Baseline 36 h ([2]; dose 100 nmol/kg)	Net cGMP (nM) Change from Baseline 48 h ([2]; dose 100 nmol/kg)	Net cGMP (nM) Change from Baseline 72 h ([2]; dose 100 nmol/kg)	Net cGMP (nM) Change from Baseline 96 h ([2]; dose 100 nmol/kg)	Net cGMP (nM) Change from Baseline 120 h ([2]; dose 100 nmol/kg)	Net cGMP (nM) Change from Baseline 144 h ([2]; dose 100 nmol/kg)	Net cGMP (nM) Change from Baseline 168 h ([2]; dose 100 nmol/kg)	net cGMP levels (result in words) [2]	other results
{C20 diacid-γGlu}-EKEKEKGS[4Pal]RRSSCFGGRIGRIGHQSGLGCPSFRHGGPSSGAPPPS-NH2 (disulfide 14-30) [Example 29]	0.545 mL/min/kg	720 min	2.13 nM	3.52 nM	9.03 nM	10.14 nM	15.28 nM	17.75 nM	26.8 nM	28.52 nM	31.75 nM	32.52 nM	21.75 nM	12.46 nM	12.31 nM	8.52 nM	8.28 nM	4.1 nM	increased net cGMP levels	–
{C20 diacid-γGlu}-EKEKEKG[PEG24]S[4Pal]RRSSCFGGRIDRIGHQSGLGCPSFRHGGPSSGAPPPS-NH2 (linker 15-31 via CH2) [Example 61]	1.08 mL/min/kg	360 min	4.41 nM	24.85 nM	27.32 nM	28.35 nM	25.21 nM	28.38 nM	33.73 nM	23.51 nM	27.96 nM	24.75 nM	11.81 nM	14.82 nM	20.25 nM	12.15 nM	18 nM	11.81 nM	increased net cGMP levels	–
CC[C@H](C)[C@@H]1NC(=O)[C@H](CCCNC(=N)N)NC(=O)[C@H](CC(=O)O)NC(=O)[C@H]([C@@H](C)CC)NC(=O)[C@H](CCCNC(=N)N)NC(=O)[C@H](CCCCN)NC(=O)CNC(=O)[C@H](Cc2ccccc2)NC(=O)[C@@H](NC(=O)[C@H](CO)NC(=O)[C@H](CO)NC(=O)[C@H](CCCNC(=N)N)NC(=O)CCNC(=O)[C@H](CCCCN)NC(=O)[C@H](CCC(=O)O)NC(=O)COCCOCCNC(=O)COCCOCCNC(=O)COCCOCCNC(=O)COCCOCCNC(=O)COCCOCCNC(=O)COCCOCCNC(=O)CNC(=O)[C@H](CCCCN)NC(=O)[C@H](CCC(=O)O)NC(=O)[C@H](CCCCN)NC(=O)[C@H](CCC(=O)O)NC(=O)[C@H](CCCCN)NC(=O)[C@H](CCC(=O)O)NC(=O)CC[C@H](NC(=O)CCCCCCCCCCCCCCCCCCC(=O)O)C(=O)O)CSCSC[C@@H](C(=O)N2CCC[C@H]2C(=O)N[C@@H](CO)C(=O)N[C@@H](Cc2ccccc2)C(=O)N[C@@H](CCCNC(=N)N)C(=O)N[C@@H](Cc2c[nH]cn2)C(=O)NCC(=O)NCC(=O)N[C@@H](CCCCN)C(=O)N[C@@H](CO)C(=O)N[C@@H](CO)C(=O)NCC(=O)N[C@@H](C)C(=O)N2CCC[C@H]2C(=O)N2CCC[C@H]2C(=O)N2CCC[C@H]2C(=O)N[C@@H](CO)C(N)=O)NC(=O)CNC(=O)[C@H](CC(C)C)NC(=O)CNC(=O)[C@H](CO)NC(=O)[C@H](CCC(N)=O)NC(=O)[C@H](Cc2c[nH]cn2)NC(=O)CNC1=O [Example 89]	–	–	6.83 nM	20.73 nM	33.07 nM	35.04 nM	36.11 nM	42.86 nM	36.71 nM	33.87 nM	30.9 nM	24.59 nM	16.29 nM	15.56 nM	12.74 nM	18.95 nM	12.03 nM	8.03 nM	increased net cGMP levels	–
{C20 diacid-γGlu}-EKEKEKGEKPRSSCFG[Dap]RIDRIGHYSGLGCPSFRHGSPSSGAPPPS-NH2 (linker 14-30 via CH2) [Example 136]	–	–	–	–	–	–	–	–	–	–	–	–	–	–	–	–	–	–	increased net cGMP levels	Net cGMP (nM) Change from Baseline 0.083 h ([2]; dose 50 nmol/kg): 3.25 nM; Net cGMP (nM) Change from Baseline 0.25 h ([2]; dose 50 nmol/kg): 12.48 nM; Net cGMP (nM) Change from Baseline 0.5 h ([2]; dose 50 nmol/kg): 20.78 nM; Net cGMP (nM) Change from Baseline 1 h ([2]; dose 50 nmol/kg): 12.12 nM; Net cGMP (nM) Change from Baseline 2 h ([2]; dose 50 nmol/kg): 9.42 nM; Net cGMP (nM) Change from Baseline 4 h ([2]; dose 50 nmol/kg): 8.76 nM; Net cGMP (nM) Change from Baseline 8 h ([2]; dose 50 nmol/kg): 7.65 nM; Net cGMP (nM) Change from Baseline 12 h ([2]; dose 50 nmol/kg): 7.65 nM; Net cGMP (nM) Change from Baseline 24 h ([2]; dose 50 nmol/kg): 11.83 nM; Net cGMP (nM) Change from Baseline 36 h ([2]; dose 50 nmol/kg): 11.18 nM; Net cGMP (nM) Change from Baseline 48 h ([2]; dose 50 nmol/kg): 5.65 nM; Net cGMP (nM) Change from Baseline 72 h ([2]; dose 50 nmol/kg): 2.61 nM; Net cGMP (nM) Change from Baseline 96 h ([2]; dose 50 nmol/kg): 2.05 nM; Net cGMP (nM) Change from Baseline 120 h ([2]; dose 50 nmol/kg): 2.71 nM; Net cGMP (nM) Change from Baseline 144 h ([2]; dose 50 nmol/kg): 3.72 nM; Net cGMP (nM) Change from Baseline 168 h ([2]; dose 50 nmol/kg): 3.36 nM
